Results taken from US4617189A, “Use of selenium-containing compounds for negating the toxic effects of platinum compounds used in chemotherapy, and a novel selenium-containing platinum compound and use thereof as an anti-cancer medicine” (priority 1985, dated 1986).

Legend:
[1] = system: Cisplatin induced nephrotoxicity; assay: Platinum toxicity negating effect: blood urea nitrogen (BUN) determination in BDF1 mice given Cisplatin; type: in vivo, mouse (male BDF1); conditions: for BUN (≥30) on the fourth day / BUN (≥30) on the eleventh day: mice with BUN ≥30 / mice
Description: BUN of the mice which have been administered a platinum complex increases due to the platinum poisoning in the kidney. […] The method of negating platinum toxicity of the present invention will be illustrated in more detail by way of Examples later.
Sodium selenite was administered to the peritoneal cavities of the mice at a dosage of 6.3 mg/kg. […] BUN of the mice was determined on the fourth day from the date of the administration. […] BUN of these control groups was also determined.
BUN of the mice was dertermined on the fourth day from the date of administration and on the eleventh day from the date of the administration. […] BUN of these control groups was also determined.
Our studies were carried out in BDF1 male mice weighing approximately 25 grams. All solutions were freshly were daily and given by the intraperitoneal route.
The BUN values were determined on the fourth day after the administration of cisplatinol.

[2] = system: cadmium induced testicular damage; conditions: Kar and co-workers, 1969; cited from earlier work
[3] = system: nephrotoxic effects of Cisplatin; conditions: 750 mg/kg intraperitoneally or 100 mg/kg intravenously; cited from earlier work
[4] = Table 3, sodium selenite 1 mg/kg 2 hours before Cisplatin 14 mg/kg
[5] = Table 3, sodium selenite 2 mg/kg 2 hours before Cisplatin 14 mg/kg
[6] = Table 3, sodium selenite 4 mg/kg 2 hours before Cisplatin 14 mg/kg
[7] = Table 3, sodium selenite 6 mg/kg 2 hours before Cisplatin 14 mg/kg
[8] = Table 3, sodium selenite 8 mg/kg 2 hours before Cisplatin 14 mg/kg

Question: For `O=[Se](O)O` [Sodium selenite], which “number of dead mice” value ([1]; Table 1, fourth day, sodium selenite 6.3 mg/kg 2 hours before Cisplatin 14 mg/kg) is on record?
Answer: 2

Question: What about the “BUN (≥30) on the fourth day” value ([1]; Table 1, sodium selenite 6.3 mg/kg 1 hour after Cisplatin 14 mg/kg) of the same compound?
Answer: 5/5

Question: What about the “BUN (≥30) on the fourth day” value ([1]; Table 1, sodium selenite 6.3 mg/kg 2 hours before Cisplatin 14 mg/kg) of the same compound?
Answer: 1/3

Question: What about the “BUN (≥30) on the fourth day” value ([1]; Table 1, sodium selenite 6.3 mg/kg 4 hours before Cisplatin 14 mg/kg) of the same compound?
Answer: 4/5

Question: What about the “BUN (≥30) on the fourth day” value ([1]; Table 1, sodium selenite 6.3 mg/kg i.p. alone, no Cisplatin) of the same compound?
Answer: 0/5

Question: And the “BUN (≥30) on the fourth day” value ([1]; Table 1, sodium selenite 6.3 mg/kg simultaneously with Cisplatin 14 mg/kg)?
Answer: 2/5

Question: And the “number of dead mice” value ([1]; Table 2, fourth day, sodium selenite 6.3 mg/kg 3 hours before Cisplatin 14 mg/kg)?
Answer: 1

Question: And the “number of dead mice” value ([1]; Table 2, fourth day, sodium selenite 6.3 mg/kg 4 hours before Cisplatin 14 mg/kg)?
Answer: 1

Question: And the “number of dead mice” value ([1]; Table 2, fourth day, sodium selenite 6.3 mg/kg 6 hours before Cisplatin 14 mg/kg)?
Answer: 1

Question: What about the “number of dead mice” value ([1]; Table 2, fourth day, sodium selenite 6.3 mg/kg simultaneously with Cisplatin 14 mg/kg) of the same compound?
Answer: 1

Question: What about the “BUN (≥30) on the fourth day” value ([1]; Table 2, sodium selenite 6.3 mg/kg 1 hour before Cisplatin 14 mg/kg) of the same compound?
Answer: 3/5

Question: What about the “BUN (≥30) on the fourth day” value ([1]; Table 2, sodium selenite 6.3 mg/kg 2 hours before Cisplatin 14 mg/kg) of the same compound?
Answer: 1/5

Question: And the “BUN (≥30) on the fourth day” value ([1]; Table 2, sodium selenite 6.3 mg/kg 3 hours before Cisplatin 14 mg/kg)?
Answer: 1/4

Question: And the “BUN (≥30) on the fourth day” value ([1]; Table 2, sodium selenite 6.3 mg/kg 4 hours before Cisplatin 14 mg/kg)?
Answer: 2/4

Question: And the “BUN (≥30) on the fourth day” value ([1]; Table 2, sodium selenite 6.3 mg/kg 6 hours before Cisplatin 14 mg/kg)?
Answer: 2/4

Question: And the “BUN (≥30) on the fourth day” value ([1]; Table 2, sodium selenite 6.3 mg/kg simultaneously with Cisplatin 14 mg/kg)?
Answer: 2/4

Question: And the “number of dead mice” value ([1]; Table 3, eleventh day, sodium selenite 2 mg/kg 2 hours before Cisplatin 14 mg/kg)?
Answer: 1

Question: What about the “number of dead mice” value ([1]; Table 3, eleventh day, sodium selenite 4 mg/kg 2 hours before Cisplatin 14 mg/kg) of the same compound?
Answer: 2

Question: And the “number of dead mice” value ([1]; Table 3, eleventh day, sodium selenite 6 mg/kg 2 hours before Cisplatin 14 mg/kg)?
Answer: 1

Question: What about the “number of dead mice” value ([1]; Table 3, eleventh day, sodium selenite 8 mg/kg 2 hours before Cisplatin 14 mg/kg) of the same compound?
Answer: 1

Question: What about the “number of dead mice” value ([1]; Table 3, fourth day, sodium selenite 4 mg/kg 2 hours before Cisplatin 14 mg/kg) of the same compound?
Answer: 1

Question: And the “number of dead mice” value ([1]; Table 3, fourth day, sodium selenite 8 mg/kg 2 hours before Cisplatin 14 mg/kg)?
Answer: 1

Question: What about the “BUN (≥30) on the eleventh day” value [1, 4] of the same compound?
Answer: 1/5

Question: What about the “BUN (≥30) on the fourth day” value [1, 4] of the same compound?
Answer: 3/5

Question: And the “BUN (≥30) on the eleventh day” value [1, 5]?
Answer: 0/4

Question: What about the “BUN (≥30) on the fourth day” value [1, 5] of the same compound?
Answer: 1/5

Question: And the “BUN (≥30) on the eleventh day” value [1, 6]?
Answer: 0/3

Question: What about the “BUN (≥30) on the fourth day” value [1, 6] of the same compound?
Answer: 1/4

Question: What about the “BUN (≥30) on the eleventh day” value [1, 7] of the same compound?
Answer: 0/4

Question: And the “BUN (≥30) on the fourth day” value [1, 7]?
Answer: 1/5

Question: And the “BUN (≥30) on the eleventh day” value [1, 8]?
Answer: 0/4

Question: What about the “BUN (≥30) on the fourth day” value [1, 8] of the same compound?
Answer: 1/4

Question: Which “cadmium induced testicular damage” value [2] does the source give for `[Se]` [selenium] here?
Answer: prevents

Question: With `CCN(CC)C(=S)[S-].[Na+]` [sodium diethyldithiocarbamate] as the compound, how does the “nephrotoxic effects of Cisplatin in female rats” value [3] read?
Answer: effectively inhibited
